target: T1, human TLR8 (Homo sapiens, UniProt Q9NR97); experiment: HEK293-Blue-hTLR-8 cells assay (SEAP reporter, R848 stimulation); assay type: cell-based; settings: HEK293-Blue-hTLR8 cells, R848 ligand, 20 hrs incubation
T1 sequence (Q9NR97 27-1041): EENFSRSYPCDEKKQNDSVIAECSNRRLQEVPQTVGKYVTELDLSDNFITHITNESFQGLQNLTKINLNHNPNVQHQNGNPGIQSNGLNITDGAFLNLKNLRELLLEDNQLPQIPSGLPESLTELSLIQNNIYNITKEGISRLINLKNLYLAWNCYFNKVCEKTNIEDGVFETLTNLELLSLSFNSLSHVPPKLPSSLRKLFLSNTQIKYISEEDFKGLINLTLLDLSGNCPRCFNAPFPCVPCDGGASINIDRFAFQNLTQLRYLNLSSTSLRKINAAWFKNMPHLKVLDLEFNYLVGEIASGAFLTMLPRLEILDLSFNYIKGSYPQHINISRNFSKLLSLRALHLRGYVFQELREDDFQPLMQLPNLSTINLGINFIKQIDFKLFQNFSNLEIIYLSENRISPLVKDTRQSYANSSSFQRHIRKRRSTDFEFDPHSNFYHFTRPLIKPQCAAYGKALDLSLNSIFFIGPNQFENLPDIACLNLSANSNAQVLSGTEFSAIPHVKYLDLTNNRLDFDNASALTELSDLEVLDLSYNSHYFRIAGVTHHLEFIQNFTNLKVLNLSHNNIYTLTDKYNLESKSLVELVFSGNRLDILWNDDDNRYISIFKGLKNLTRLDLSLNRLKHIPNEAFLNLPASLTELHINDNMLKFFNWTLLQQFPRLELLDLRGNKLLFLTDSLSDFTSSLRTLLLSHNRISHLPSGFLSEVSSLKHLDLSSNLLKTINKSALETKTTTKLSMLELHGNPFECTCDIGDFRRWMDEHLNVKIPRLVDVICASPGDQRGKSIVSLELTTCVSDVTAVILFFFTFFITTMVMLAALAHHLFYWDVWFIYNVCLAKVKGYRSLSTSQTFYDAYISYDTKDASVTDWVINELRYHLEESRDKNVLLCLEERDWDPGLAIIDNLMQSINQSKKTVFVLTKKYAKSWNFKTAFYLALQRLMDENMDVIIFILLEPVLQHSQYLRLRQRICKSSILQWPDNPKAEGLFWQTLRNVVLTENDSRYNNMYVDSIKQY
Method in brief: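 Antagonism was measured in HEK293-Blue-hTLR8 cells with an NF-κB/AP-1-driven SEAP reporter. Cells were stimulated with R848 (10 μL of 60 uM stock) alongside compound (1% DMSO) for 20 hrs at 37° C. Supernatant SEAP was read with QUANTI-Blue after 2 hrs, absorbance at 620-655 nm.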

Row | SMILES | IC50 [nM]
1 | N#Cc1ccc(N2C[C@H](CN3CC4CNCC4C3)[C@@H](C(F)(F)F)C2)c2nccnc12 (stereo partly drawn) [Example 76, 8-[(3S,4R)-3-(2,3,3a,4,6,6a-hexahydro-1H-pyrrolo[3,4-c]pyrrol-5-ylmethyl)-4-(trifluoromethyl)pyrrolidin-1-yl]quinoxaline-5-carbonitrile] | 41
2 | N#Cc1ccc(N2C[C@H](CN3CC4CCC3CN4)[C@@H](C(F)(F)F)C2)c2nccnc12 (stereo partly drawn) [Example 77, 8-[(3S,4R)-3-(2,5-diazabicyclo[2.2.2]octan-2-ylmethyl)-4-(trifluoromethyl)pyrrolidin-1-yl]quinoxaline-5-carbonitrile] | 26
3 | N#Cc1ccc(N2C[C@H](CN3CCCC(F)(CN)C3)[C@@H](C(F)(F)F)C2)c2nccnc12 (stereo partly drawn) [Example 78, 8-[(3S,4R)-3-[[3-(aminomethyl)-3-fluoro-1-piperidyl]methyl]-4-(trifluoromethyl)pyrrolidin-1-yl]quinoxaline-5-carbonitrile] | 30
4 | N#Cc1ccc(N2C[C@H](CN3CCC(CCN)CC3)[C@@H](C(F)(F)F)C2)c2nccnc12 [Example 79, 8-[(3S,4R)-3-[[4-(2-aminoethyl)-1-piperidyl]methyl]-4-(trifluoromethyl)pyrrolidin-1-yl]quinoxaline-5-carbonitrile] | 102
5 | CN(C)C1CCN(C[C@H]2CN(c3ccc(C#N)c4nccnc34)C[C@@H]2C(F)(F)F)CC1 [Example 80, 8-[(3S,4R)-3-[[4-(dimethylamino)-1-piperidyl]methyl]-4-(trifluoromethyl)pyrrolidin-1-yl]quinoxaline-5-carbonitrile] | 32
6 | CNCC1CCN(C[C@H]2CN(c3ccc(C#N)c4nccnc34)C[C@@H]2C(F)(F)F)CC1 [Example 81, 8-[(3S,4R)-3-[[4-(methylaminomethyl)-1-piperidyl]methyl]-4-(trifluoromethyl)pyrrolidin-1-yl]quinoxaline-5-carbonitrile] | 25
7 | CN(C)C[C@@H]1CCN(C[C@H]2CN(c3ccc(C#N)c4nccnc34)C[C@@H]2C(F)(F)F)C1 [Example 82, 8-[(3S,4R)-3-[[(3S)-3-[(dimethylamino)methyl]pyrrolidin-1-yl]methyl]-4-(trifluoromethyl)pyrrolidin-1-yl]quinoxaline-5-carbonitrile] | 108

— US20210253575A1, “PYRROLIDINE AMINE COMPOUNDS FOR THE TREATMENT OF AUTOIMMUNE DISEASE” (Hoffmann-La Roche Inc., priority 2018, published 2021)
